What was measured:
CSF [1] = conditions: literature; cited from earlier work
bone marrow = conditions: myelosuppression caused by chemotherapy or radiation; literature; cited from earlier work
[2] = system: bone marrow progenitor cells; experiment: Delta assay: expansion of bone marrow progenitor cells in vitro, with c-kit ligand (KL); type: cell-based, mouse; conditions: KL alone, 7 day in vitro incubation; medium alone 0
Description: Delta Assay--Mice are treated with a single dose of 5-FU (150 mg/kg ip). Twenty-four hours later, bone marrow cells are removed and split into 2 aliquots. […] After 14 days, the number of colonies is determined (CFU-1). A second aliquot of cells is placed in liquid culture with single growth factors or drugs or combinations of each to assess the ability of these agents to expand the colony forming cell pool. After 7 days in liquid culture, these cells are harvested and plated in soft agar with IL-1 and GM-CSF as with the first aliquot. After 14 days the number of colonies in the second aliquot is determined (CFU-2). The ratio or delta is calculated as CFU-2/CFU-1 and this ratio is used to ascertain the ability of the growth factors and/or drugs used in the liquid phase to induce growth of the colony forming cells (CFU) or differentiation of pre-CFU to CFU.
Bone marrow cells from 5-FU treated mice are used to enrich for early progenitor cells. The cells are split into 2 aliquots as described in the methods section for the "delta assay." The fold increase is determined by measuring the effect of a 7 day in vitro incubation of the cells with tissue culture medium plus test compound and/or growth factor KL on colony forming dells (CFU). The number of CFUs are then compared with colony formation of the fresh bone marrow cells that were not incubated in vitro to determine the fold increase. Test compound is used in vitro at 0.5 μg/ml.

IL-6 = experiment: Serum IL-6 production in mice after single s.c. injection (7TD1 bioassay); type: in vivo, mouse; conditions: serum 4 h post injection
Description: Description of Biological Assays Interleukin 6(IL-6) assay for structure function analysis--Test compounds are dissolved in water and administered subcutaneously in 0.2 ml to deliver a dose of 0.1-10 mg/kg. The less soluble compounds are first dissolved in 100% ethanol and then brought to the appropriate concentration in water. Four hours post injection, the mice are bled and the serum is retrieved. The IL-6 dependent cell line 7TDl is used to assay serial dilutions of sera for IL-6 content. 7TDl cells (1×10^4) are placed in microtiter wells and incubated at 37° C. for 72 hours with standard recombinant mouse IL-6 or with dilutions of serum to be tested. Over the last 6 hours, the cells are pulsed with ^3 H-Tdr (μci). Cells are then harvested and the degree of proliferation determined by the uptake of ^3 H-Tdr as measured by liquid scintillation spectrometry. The concentration of IL-6 in serum is calculated from standard curves utilizing recombinant IL-6 from R&D Systems Inc. and are reported in units of IL-6 activity as defined by the manufacturer.

CSF [3] = experiment: Serum colony stimulating factor (CSF) assay in mice; type: in vivo, mouse; conditions: serum 4 hours after injection
Description: Colony forming assays Granulocyte-Macrophage (CFU-GM)--Mice are treated with 150 mg/kg of 5-Fu and treatment with test compound begins 24 hrs. later. On consecutive days, mice are killed by cervical dislocation and the femurs removed under sterile conditions. Femurs are flushed with 1 ml of ice cold medium (Iscove's supplemented with 20% FCS, 1% penicillin-streptomycin, 1% glutamine and 5×10^-5 M 2-mercaptoethanol). Bone marrow cells (5×10^5) are then plated in 12×75 mm tissue culture plates in 3 ml of warm ararose (3%) in Iscove's medium with 100 Units/ml of recombinant mouse GM-CSF purchased from Genzyme (Boston, Mass.). Plates are incubated for 7 days at 37° C. in 5% CO2. After 7 days, colonies of 50 cells or greater are enumerated under a dissecting microscope.
Bone marrow cells are prepared as described above for the CFU-GM assay. The cells are then incubated in soft agar with an 0.3% final concentration of serum taken from mice 4 hours after injection with test compounds. After 7 days of incubation at 37° C., the number of colony forming (CFU) cells per 10^5 plated bone marrow cells is determined by counting colonies of more than 50 cells under a dissecting microscope. The data are reported as CFU/10^5 bone marrow cells.

neutrophils [4] = experiment: Neutrophil recovery in 5-FU treated mice; type: in vivo, mouse; conditions: mouse, in vivo
Description: (§1) Circulating Neutrophil Assay--Mice are treated with 5-FU (150 mg/kg) and beginning 24 hrs. later, treated daily with the test compound. Mice are bled daily by retroorbital puncture in heparinized capillary tubes. Circulating WBC counts are determined by Coulter counter. Blood smears are stained with Wright-Geimsa solution and the percentage circulating neutrophils determined by differential counting under a microscope.
(§2) 5-Fluorouracil (5-FU) Induced Neutropenia In Mice--Mice are treated ip with 150 mg/kg of the chemotherapy agent 5-FU which induces a severe loss of neutrophils in the peripheral blood 5-6 days later. Twenty-four hrs. after the dose, treatment with the test compounds is initiated. The effect of the test compounds on recovery of neutrophil progenitor cells in the bone marrow is determined by the CFU-GM assay. The recovery of circulating neutrophils is followed by differential staining of the peripheral blood.
*Data from 10 mice/group on day 7 post treatment with 150 mg/kg of 5FU.
Beginning 24 hrs. after 5FU dose, mice were treated daily with test
compound at concentrations indicated. Neutrophil count for normal mice (n
**Mice treated with 5FU and vehicle only.

neutrophils [5] = experiment: Neutrophil recovery in cytoxan treated primates; type: in vivo, cynomolgous monkeys; conditions: for Absolute Neutrophil Count/cu. mm. of Blood: Cytoxan + Ex. 32 (50 μg/kg daily s.c.)
Description: Groups of 4 cynomolgous monkeys are treated on day 1 and day 0 with
cytoxan at 60 mg/kg. Beginning 24 hours after the second cytoxan dose, on
group is treated daily s.c. with 50 μg/kg of test compound and the
other with vehicle (water) only.
*p < 0.05 versus cytoxan only control by Student's t test.

neutrophils [6] = experiment: Oral dosing: neutrophil recovery in 5-FU treated mice; type: in vivo, mouse; conditions: for Neutrophils/cu. mm.: day 7 post 5FU, 0 dose 67 ± 22
Description: as §1, §2
Groups of 5 mice are treated with 150 mg/kg of 5-FU. One day later, daily oral dosing with test compounds begins and continues for 10 days. […]

neutrophils [7] = experiment: Neutrophil recovery in 5-FU treated mice; type: in vivo, mouse; conditions: day 8 post 5FU, 0 dose 144 ± 36

muroctasin
formation of CSF (in words) (CSF [1]): appear to induce the formation of CSF | bone marrow restoration after myelosuppression (in words) (bone marrow): can aid in bone marrow restoration

KL: hemopoietic growth factor c-kit ligand (KL)
Fold Increase in CFU [2]: 66 fold

pimelautide
formation of CSF (in words) (CSF [1]): appear to induce the formation of CSF | bone marrow restoration after myelosuppression (in words) (bone marrow): can aid in bone marrow restoration

CCCCCCC(=O)N[C@H](COC(=O)N[C@@H](CCC[C@@H](N)C(=O)O)C(=O)N[C@H](C)C(=O)O)C(=O)O [Example 32, (R)-N-[(R)-6-carboxy-N^2-[[2-carboxy-2-[(1-oxoheptyl)amino]ethoxy]carbonyl]-L-lysyl]-D-Alanine]
IL-6 (IL-6; 0.1 mg/kg s.c.): 1340 ± 134 U/ml | IL-6 (IL-6; 1.0 mg/kg s.c.): 1797 ± 284 U/ml | CSF production, CFU/100,000 Bone Marrow Cells (CSF [3]; 0.1 mg/kg): 154 ± 5 CFU/100,000 Bone Marrow Cells | CSF production, CFU/100,000 Bone Marrow Cells (CSF [3]; 1.0 mg/kg): 137 ± 15 CFU/100,000 Bone Marrow Cells | neutrophil recovery in 5-FU treated mice (in words) (neutrophils [4]): induce neutrophil recovery in 5-FU treated mice | Absolute Neutrophil Count/cu. mm. of Blood (neutrophils [5]; day 0 after cytoxan, cytoxan only 3640 ± 1058): 3554 ± 1194 /cu. mm. of Blood | Absolute Neutrophil Count/cu. mm. of Blood (neutrophils [5]; day 1 after cytoxan, cytoxan only 4900 ± 971): 7849 ± 1592 /cu. mm. of Blood | Absolute Neutrophil Count/cu. mm. of Blood (neutrophils [5]; day 2 after cytoxan, cytoxan only 2689 ± 156): 4679 ± 867 /cu. mm. of Blood | Absolute Neutrophil Count/cu. mm. of Blood (neutrophils [5]; day 3 after cytoxan, cytoxan only 1935 ± 126): 1080 ± 264 /cu. mm. of Blood | Absolute Neutrophil Count/cu. mm. of Blood (neutrophils [5]; day 4 after cytoxan, cytoxan only 1442 ± 344): 370 ± 171 /cu. mm. of Blood | Absolute Neutrophil Count/cu. mm. of Blood (neutrophils [5]; day 5 after cytoxan, cytoxan only 856 ± 295): 455 ± 208 /cu. mm. of Blood | Absolute Neutrophil Count/cu. mm. of Blood (neutrophils [5]; day 6 after cytoxan, cytoxan only 1009 ± 292): 518 ± 218 /cu. mm. of Blood | Absolute Neutrophil Count/cu. mm. of Blood (neutrophils [5]; day 7 after cytoxan, cytoxan only 852 ± 301): 1304 ± 1046 /cu. mm. of Blood | Absolute Neutrophil Count/cu. mm. of Blood (neutrophils [5]; day 8 after cytoxan, cytoxan only 542 ± 233): 1596 ± 1000 /cu. mm. of Blood | Absolute Neutrophil Count/cu. mm. of Blood (neutrophils [5]; day 9 after cytoxan, *p < 0.05 versus cytoxan only 441 ± 194): 2041 ± 423 /cu. mm. of Blood | Absolute Neutrophil Count/cu. mm. of Blood (neutrophils [5]; day 10 after cytoxan, cytoxan only 1244 ± 509): 3506 ± 1130 /cu. mm. of Blood | Absolute Neutrophil Count/cu. mm. of Blood (neutrophils [5]; day 11 after cytoxan, cytoxan only 2053 ± 1002): 4576 ± 673 /cu. mm. of Blood | Absolute Neutrophil Count/cu. mm. of Blood (neutrophils [5]; day 12 after cytoxan, cytoxan only 1885 ± 678): 3761 ± 1394 /cu. mm. of Blood | Absolute Neutrophil Count/cu. mm. of Blood (neutrophils [5]; day 13 after cytoxan, cytoxan only 3502 ± 2297): 3751 ± 1278 /cu. mm. of Blood | Absolute Neutrophil Count/cu. mm. of Blood (neutrophils [5]; day 14 after cytoxan, cytoxan only 3816 ± 1674): 3106 ± 520 /cu. mm. of Blood | recovery of neutrophils in cytoxan treated primates (in words) (neutrophils [5]; monkey, in vivo): accelerates the recovery of neutrophils | recovery to control levels (neutrophils [5]; versus a day 10 recovery for the cytoxan only group): ≤ 7 days | Neutrophils/cu. mm. (neutrophils [6]; 1 mg/kg daily oral): 547 ± 232 /cu. mm | Neutrophils/cu. mm. (neutrophils [6]; 10 mg/kg daily oral): 1844 ± 814 /cu. mm | neutrophil recovery in 5-FU treated mice when given orally (in words) (neutrophils [6]; oral): active in accelerating neutrophil recovery | Neutrophils/cu. mm. (neutrophils [7]; 100 μg/kg daily): 982 ± 150 /cu. mm. | Neutrophils/cu. mm. (neutrophils [7]; 1000 μg/kg daily): 1892 ± 293 /cu. mm.
